This test deals with DPP1 (Homo sapiens (Human), UniProt P53634). Nature of the test: DPP1 activity inhibition test on U937 cells. The class given is cell-based. The note with it: substrate h-Gly-phe-AFC; for inhibition at 0.005 µM: U-937, 5 nM compound; for inhibition at 0.05 µM: U-937, 50 nM compound; for IC50: intracellular enzyme activity. As for the experimental part:
After incubation at 37° C. for 1 h, add h-Gly-phe-AFC (10 μL) to each well and start reaction.

SMILES strings stand for the structures.

Sequence of DPP1 (P53634 25-463): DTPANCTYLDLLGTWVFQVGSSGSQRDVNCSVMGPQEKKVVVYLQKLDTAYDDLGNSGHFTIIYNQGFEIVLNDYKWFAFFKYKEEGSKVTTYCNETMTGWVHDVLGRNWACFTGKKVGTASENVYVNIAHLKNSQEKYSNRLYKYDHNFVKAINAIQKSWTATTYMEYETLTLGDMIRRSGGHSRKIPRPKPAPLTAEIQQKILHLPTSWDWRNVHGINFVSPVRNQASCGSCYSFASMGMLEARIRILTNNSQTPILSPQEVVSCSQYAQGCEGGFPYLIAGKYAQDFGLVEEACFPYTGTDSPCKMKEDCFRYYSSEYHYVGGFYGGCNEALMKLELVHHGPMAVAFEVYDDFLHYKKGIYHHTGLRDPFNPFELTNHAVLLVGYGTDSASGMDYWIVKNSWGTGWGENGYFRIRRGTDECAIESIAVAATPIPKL

What is called inhibition is how much of the control response was suppressed. Read a high inhibition as a strong effect. Consider `Cn1c(=O)oc2ncc(-c3ccc(C[C@@H](C#N)NC(=O)[C@@H]4CNCCCO4)c(F)c3)nc21` [Compound D66], for which the inhibition at 0.005 µM is less than 30% and the inhibition at 0.05 µM is less than 30%.
`N#C[C@H](Cc1ccc(-c2ccc3oc(=O)n(C4CC(=O)C4)c3c2)cc1F)NC(=O)[C@@H]1CNCCCO1` [Compound D68] yielded an inhibition at 0.005 µM of less than 30% and an inhibition at 0.05 µM of less than 30%.
Take `N#C[C@H](Cc1ccc(-c2ccc3oc(=O)n(C4CC(O)C4)c3c2)cc1F)NC(=O)[C@@H]1CNCCCO1` (stereo partly drawn) [Compound D69]: the inhibition at 0.005 µM is less than 30% and the inhibition at 0.05 µM is less than 30%.
The compound `N#C[C@H](Cc1ccc(-c2ccc3oc(=O)n(C4CS(=O)(=O)C4)c3c2)cc1F)NC(=O)[C@@H]1CNCCCO1` [Compound D71] had an inhibition at 0.005 µM of less than 30% and an inhibition at 0.05 µM of less than 30%.
Turning to `N#C[C@H](Cc1ccc(-c2ccc3c(c2)C2(CS(=O)(=O)C2)OC3=O)cc1F)NC(=O)[C@@H]1CNCCCO1` [Compound D72], the inhibition at 0.005 µM was less than 30% and the inhibition at 0.05 µM is less than 30%.
For `CN(C)CC1OC(=O)c2ccc(-c3ccc(C[C@@H](C#N)NC(=O)[C@@H]4CNCCCO4)c(F)c3)cc21` (stereo partly drawn) [Compound D76], the inhibition at 0.005 µM is less than 30% and the inhibition at 0.05 µM fell in the range of 75 to 100%.
For the compound `COCC1OC(=O)c2ccc(-c3ccc(C[C@@H](C#N)NC(=O)[C@@H]4CNCCCO4)c(F)c3)cc21` (stereo partly drawn) [Compound D77], the inhibition at 0.005 µM was less than 30% and the inhibition at 0.05 µM lay within 75 to 100%.
For `N#C[C@H](Cc1ccc(-c2cc3c(cc2F)C(=O)OC3)cc1F)NC(=O)[C@@H]1CNCCCO1` [Compound D79], the inhibition at 0.005 µM was less than 30% and the inhibition at 0.05 µM is less than 30%.
`CS(=O)(=O)Cn1c(=O)oc2ccc(-c3ccc(C[C@@H](C#N)NC(=O)[C@@H]4CNCCCO4)c(F)c3)cc21` [Compound D80] had an inhibition at 0.005 µM of less than 30% and an inhibition at 0.05 µM of less than 30%.
Compound `N#C[C@H](Cc1ccc(-c2ccc3c(c2)N2CC(=O)N=C2O3)cc1F)NC(=O)[C@@H]1CNCCCO1` [Compound D81] displayed an inhibition at 0.005 µM of less than 30% and an inhibition at 0.05 µM of 30 to 75%.
For the compound `N#C[C@H](Cc1ccc(-c2ccc3oc(=O)n(C4CCN(C5COC5)CC4)c3c2)cc1F)NC(=O)[C@@H]1CNCCCO1` [Compound D82], the inhibition at 0.005 µM is less than 30% and the inhibition at 0.05 µM is less than 30%.
`CN1CCC(n2c(=O)oc3ccc(-c4ccc(C[C@@H](C#N)NC(=O)[C@@H]5CNCCCO5)c(F)c4)cc32)CC1` [Compound D83] showed an inhibition at 0.005 µM of less than 30% and an inhibition at 0.05 µM of less than 30%.
Compound `CN1CCC2(C1)OCc1ccc(-c3ccc(C[C@@H](C#N)NC(=O)[C@@H]4CNCCCO4)c(F)c3)cc12` (stereo partly drawn) [Compound D86] returned an inhibition at 0.005 µM of less than 30% and an inhibition at 0.05 µM of 75 to 100%.
One may read the IC50 as the concentration at which inhibition is half-maximal. Compound `N#C[C@H](Cc1ccc(-c2ccc3c(c2)C2(CCN(C4COC4)C2)OC3)cc1F)NC(=O)[C@@H]1CNCCCO1` (stereo partly drawn) [Compound D87] gave an inhibition at 0.005 µM of less than 30%, an inhibition at 0.05 µM of 75 to 100% and an IC50 of 12.8 nM.
The compound `CN1CCC2(C1)OC(=O)c1ccc(-c3ccc(C[C@@H](C#N)NC(=O)[C@@H]4CNCCCO4)c(F)c3)cc12` (stereo partly drawn) [Compound D88] yielded an inhibition at 0.005 µM of less than 30% and an inhibition at 0.05 µM of 75 to 100%.
For `N#C[C@H](Cc1ccc(-c2ccc3c(c2)C2(CCN(C4COC4)C2)OC3=O)cc1F)NC(=O)[C@@H]1CNCCCO1` (stereo partly drawn) [Compound D89], the inhibition at 0.005 µM is less than 30% and the inhibition at 0.05 µM is less than 30%.
Regarding `CN1CCC2(C=Cc3ccc(-c4ccc(C[C@@H](C#N)NC(=O)[C@@H]5CNCCCO5)c(F)c4)cc32)CC1` [Compound D90], the inhibition at 0.005 µM was less than 30% and the inhibition at 0.05 µM fell in the range of 75 to 100%.
The compound `CN1CCC2(C=Cc3cc(-c4ccc(C[C@@H](C#N)NC(=O)[C@@H]5CNCCCO5)c(F)c4)ccc32)CC1` [Compound D91] came in with an inhibition at 0.005 µM of 30 to 75%, an inhibition at 0.05 µM of 75 to 100% and a 50% inhibitory concentration (IC50) of 18 nM.
On the same counts, the results for `N#C[C@H](Cc1ccc(-c2ccc3c(c2)C=CC32CCN(C3COC3)CC2)cc1F)NC(=O)[C@@H]1CNCCCO1` [Compound D93] are 30 to 75%, 75 to 100% and 15.8 nM.
In turn, `N#C[C@H](Cc1ccc(-c2ccc3oc(=O)n(CC4COC4)c3c2)cc1F)NC(=O)[C@@H]1CNCCCO1` [Compound D94] gave an inhibition at 0.005 µM of less than 30% and an inhibition at 0.05 µM of less than 30%.
Regarding `N#C[C@H](Cc1ccc(-c2ccc3oc(=O)n(CC4CCO4)c3c2)cc1F)NC(=O)[C@@H]1CNCCCO1` (stereo partly drawn) [Compound D95], the inhibition at 0.005 µM is less than 30%, the inhibition at 0.05 µM was in the range of 75 to 100% and the IC50 is 17 nM.
Take `CN1CC(Cn2c(=O)oc3ccc(-c4ccc(C[C@@H](C#N)NC(=O)[C@@H]5CNCCCO5)c(F)c4)cc32)C1` [Compound D96]: the IC50 was 367 nM.
Same read-out and setting: next, `CN1CCC1Cn1c(=O)oc2ccc(-c3ccc(C[C@@H](C#N)NC(=O)[C@@H]4CNCCCO4)c(F)c3)cc21` (stereo partly drawn) [Compound D97]: 109 nM.
Compound `Cn1c(=O)oc2ccc(-c3ccc(C[C@@H](C#N)NC(=O)[C@@H]4CNCC5(COC5)CO4)c(F)c3)cc21` [Compound D98] had an inhibition at 0.005 µM of less than 30% and an inhibition at 0.05 µM of less than 30%.
On to `N#C[C@H](Cc1ccc(-c2ccc3oc(=O)n(C4COC4)c3c2)cc1F)NC(=O)[C@@H]1CNCCCO1` [Compound D99], for which the inhibition at 0.005 µM was less than 30% and the inhibition at 0.05 µM was in the range of 30 to 75%.
Compound `CN1CCC(n2c(=O)oc3ccc(-c4ccc(C[C@@H](C#N)NC(=O)[C@@H]5CNCCCO5)c(F)c4)cc32)C(F)(F)C1` (stereo partly drawn) [Compound D100] gave an inhibition at 0.005 µM of less than 30% and an inhibition at 0.05 µM of 30 to 75%.
On to `CN1CC2(C1)OC(=O)c1ccc(-c3ccc(C[C@@H](C#N)NC(=O)[C@@H]4CNCCCO4)c(F)c3)cc12` [Compound D102], for which the inhibition at 0.005 µM is less than 30%, the inhibition at 0.05 µM lay within 75 to 100% and 13.1 nM corresponded to half-maximal inhibition (IC50).
On the same counts, the results for `CN1CC2(C1)OCc1ccc(-c3ccc(C[C@@H](C#N)NC(=O)[C@@H]4CNCCCO4)c(F)c3)cc12` [Compound D103] are 30 to 75%, 75 to 100% and 12.2 nM.
`CN1CCC2(CC1)OC(=O)c1ccc(-c3ccc(C[C@@H](C#N)NC(=O)[C@@H]4CNCCCO4)c(F)c3)cc12` [Compound D104] showed an inhibition at 0.005 µM of less than 30% and an inhibition at 0.05 µM of less than 30%.
Consider `CN1CCC2(CC1)OCc1ccc(-c3ccc(C[C@@H](C#N)NC(=O)[C@@H]4CNCCCO4)c(F)c3)cc12` [Compound D105], for which the inhibition at 0.005 µM was less than 30% and the inhibition at 0.05 µM was less than 30%.
For the compound `CN1CCC2(CC1)COc1ccc(-c3ccc(C[C@@H](C#N)NC(=O)[C@@H]4CNCCCO4)c(F)c3)cc12` [Compound D108], the inhibition at 0.005 µM was less than 30% and the inhibition at 0.05 µM fell in the range of 75 to 100%.
Compound `C[C@H]1CNC[C@@H](C(=O)N[C@H](C#N)Cc2ccc(-c3ccc4oc(=O)n(C)c4c3)cc2F)OC1` [Compound D109] came in with an inhibition at 0.005 µM of 30 to 75%, an inhibition at 0.05 µM of 75 to 100% and an IC50 of 5.3 nM.
For `C[C@@H]1CNC[C@@H](C(=O)N[C@H](C#N)Cc2ccc(-c3ccc4oc(=O)n(C)c4c3)cc2F)OC1` [Compound D110], 4.3 nM corresponded to half-maximal inhibition (IC50).
Regarding `N#C[C@H](Cc1ccc(-c2ccc3c(n2)CCC3=O)cc1F)NC(=O)[C@@H]1CNCCCO1` [Compound D111], the inhibition at 0.005 µM was less than 30%, the inhibition at 0.05 µM lay in the range of 75 to 100% and the half-inhibitory concentration (IC50) was 32.9 nM.
Take `N#C[C@H](Cc1ccc(-c2cc3c(cn2)C(=O)CC3)cc1F)NC(=O)[C@@H]1CNCCCO1` [Compound D112]: the inhibition at 0.005 µM was less than 30% and the inhibition at 0.05 µM lay in the range of 30 to 75%.
On the same counts, the results for `N#C[C@H](Cc1ccc(-c2cnc3c(c2)CCC3=O)cc1F)NC(=O)[C@@H]1CNCCCO1` [Compound D113] are less than 30% and less than 30%.
`Cn1ccc(=O)c2ccc(-c3ccc(C[C@@H](C#N)NC(=O)[C@@H]4CNCCCO4)c(F)c3)cc21` [Compound D114] displayed an IC50 of 867 nM.
On the same count and under the same terms, next, `CN1CC2(Cc3cc(-c4ccc(C[C@@H](C#N)NC(=O)[C@@H]5CNCCCO5)c(F)c4)ccc3C2=O)C1` [Compound D115]: 29.4 nM.
`N#C[C@H](Cc1ccc(-c2ccc3c(c2)CC2(CC2)C3=O)cc1F)NC(=O)[C@@H]1CNCCCO1` [Compound D116] came in with an inhibition at 0.005 µM of less than 30% and an inhibition at 0.05 µM of 30 to 75%.
As for `CC1(C)Cc2cc(-c3ccc(C[C@@H](C#N)NC(=O)[C@@H]4CNCCCO4)c(F)c3)ccc2C1=O` [Compound D117], the inhibition at 0.005 µM is 30 to 75%, the inhibition at 0.05 µM fell in the range of 75 to 100% and 6 nM corresponded to half-maximal inhibition (IC50).
Compound `N#C[C@H](Cc1ccc(-c2ccc3c(c2)C2(COC2)OC3=O)cc1F)NC(=O)[C@@H]1CNCCCO1` [Compound D119] had a 50% inhibitory concentration (IC50) of 6.1 nM.
The compound `N#C[C@H](Cc1ccc(-c2ccc3c(c2)CCC3=O)[se]1)NC(=O)[C@@H]1CNCCCO1` [Compound D121] came in with an IC50 of 4.7 nM.
As to `N#C[C@H](Cc1ccc(-c2ccc3c(c2)C2CC2C3=O)cc1F)NC(=O)[C@@H]1CNCCCO1` (stereo partly drawn) [Compound D122], the concentration for half-maximal inhibition (IC50) turned out to be 17 nM.

The values above are taken from patent US20250101011A1, “PEPTIDYL NITRILE COMPOUND AND USE THEREOF” (SHANGHAI YIDIAN PHARMACEUTICAL TECHNOLOGY DEVELOPMENT CO., …, priority 2022, published 2025).
